Assay results from patent US11339447B2, “System and method for determining Kareniticin sensitivity on cancer” (CROWN BIOSCIENCE, INC. (TAICANG), priority 2017, dated 2022).

Assays:
[1] = test system: 48 PDX models in 8 cancers; experiment: karenitecin treatment of a cohort of 48 PDX models; format: in vivo; conditions: number of the 48 PDX models in 8 cancers; treatment for two weeks
Procedure: (§1) A cohort of 48 PDX models in 8 cancers were used in this study. Those models were subject to karenitecin treatment for two weeks. Both tumor growth inhibition (TGI) and median AUC (area under curve) ratio, a newly developed metric to evaluate drug efficacy, were calculated (Table 1). Those models can be divided into two categories according to TGI and median AUC ratio.

[2] = test system: extensively pretreated ovarian cancer; conditions: previous clinical trial (Kavanagh 2008); cited from earlier work
PDX PA3029 = experiment: karenitecin treatment of PDX model; format: in vivo; parameters: key to Response: responder: responded to karenitecin treatment (AUC<0.5 and TGI>0.8); non_responder: did not respond to karenitecin treatment (AUC>0.5 and TGI<0.6); conditions: karenitecin treatment for two weeks
Procedure: as §1

PDX CR0133 = experiment: karenitecin treatment of PDX model; format: in vivo; parameters: key to Response: responder: responded to karenitecin treatment (AUC<0.5 and TGI>0.8); non_responder: did not respond to karenitecin treatment (AUC>0.5 and TGI<0.6); conditions: karenitecin treatment for two weeks
Procedure: as §1

PDX CR3085 = experiment: karenitecin treatment of PDX model; format: in vivo; parameters: key to Response: responder: responded to karenitecin treatment (AUC<0.5 and TGI>0.8); non_responder: did not respond to karenitecin treatment (AUC>0.5 and TGI<0.6); conditions: karenitecin treatment for two weeks
Procedure: as §1

PDX GL1208 = experiment: karenitecin treatment of PDX model; format: in vivo; parameters: key to Response: responder: responded to karenitecin treatment (AUC<0.5 and TGI>0.8); non_responder: did not respond to karenitecin treatment (AUC>0.5 and TGI<0.6); conditions: karenitecin treatment for two weeks
Procedure: as §1

PDX LU0330 = experiment: karenitecin treatment of PDX model; format: in vivo; parameters: key to Response: responder: responded to karenitecin treatment (AUC<0.5 and TGI>0.8); non_responder: did not respond to karenitecin treatment (AUC>0.5 and TGI<0.6); conditions: karenitecin treatment for two weeks
Procedure: as §1

PDX ES0201 = experiment: karenitecin treatment of PDX model; format: in vivo; parameters: key to Response: responder: responded to karenitecin treatment (AUC<0.5 and TGI>0.8); non_responder: did not respond to karenitecin treatment (AUC>0.5 and TGI<0.6); conditions: karenitecin treatment for two weeks
Procedure: as §1

PDX LU1271 = experiment: karenitecin treatment of PDX model; format: in vivo; parameters: key to Response: responder: responded to karenitecin treatment (AUC<0.5 and TGI>0.8); non_responder: did not respond to karenitecin treatment (AUC>0.5 and TGI<0.6); conditions: karenitecin treatment for two weeks
Procedure: as §1

PDX ES0042 = experiment: karenitecin treatment of PDX model; format: in vivo; parameters: key to Response: responder: responded to karenitecin treatment (AUC<0.5 and TGI>0.8); non_responder: did not respond to karenitecin treatment (AUC>0.5 and TGI<0.6); conditions: karenitecin treatment for two weeks
Procedure: as §1

PDX LU1901 = experiment: karenitecin treatment of PDX model; format: in vivo; parameters: key to Response: responder: responded to karenitecin treatment (AUC<0.5 and TGI>0.8); non_responder: did not respond to karenitecin treatment (AUC>0.5 and TGI<0.6); conditions: karenitecin treatment for two weeks
Procedure: as §1

PDX GA3055 = experiment: karenitecin treatment of PDX model; format: in vivo; parameters: key to Response: responder: responded to karenitecin treatment (AUC<0.5 and TGI>0.8); non_responder: did not respond to karenitecin treatment (AUC>0.5 and TGI<0.6); conditions: karenitecin treatment for two weeks
Procedure: as §1

PDX SA0271 = experiment: karenitecin treatment of PDX model; format: in vivo; parameters: key to Response: responder: responded to karenitecin treatment (AUC<0.5 and TGI>0.8); non_responder: did not respond to karenitecin treatment (AUC>0.5 and TGI<0.6); conditions: karenitecin treatment for two weeks
Procedure: as §1

PDX LU1116 = experiment: karenitecin treatment of PDX model; format: in vivo; parameters: key to Response: responder: responded to karenitecin treatment (AUC<0.5 and TGI>0.8); non_responder: did not respond to karenitecin treatment (AUC>0.5 and TGI<0.6); conditions: karenitecin treatment for two weeks
Procedure: as §1

[3] = prior studies, cited from earlier work

In the case of `CC[C@@]1(O)C(=O)OCc2c1cc1n(c2=O)Cc2c-1nc1ccccc1c2CC[Si](C)(C)C` [karenitecin], the “models did not respond to karenitecin treatment (AUC>0.5 and TGI<0.6)” value [1] is listed as 17, the “models responded to karenitecin treatment (AUC<0.5 and TGI>0.8)” value [1] is listed as “Thirty-one” and the response rate [2] is listed as “low”. For the same molecule, the “Median AUC ratio” value (PDX PA3029) was 0.768, the Response (PDX PA3029) was “non_responder” and the TGI (PDX PA3029) was 0.423. For the same molecule, the “Median AUC ratio” value (PDX CR0133) was 0.275, the Response (PDX CR0133) was “responder” and the TGI (PDX CR0133) was 0.905. The “Median AUC ratio” value (PDX CR3085) was 0.019, the Response (PDX CR3085) was “responder” and the TGI (PDX CR3085) was 1.051. The “Median AUC ratio” value (PDX GL1208) was 0.811, the Response (PDX GL1208) was “non_responder” and the TGI (PDX GL1208) was 0.135. The “Median AUC ratio” value (PDX LU0330) was 1.094, the Response (PDX LU0330) was “non_responder” and the TGI (PDX LU0330) was 0.000. The “Median AUC ratio” value (PDX ES0201) was 1.093, the Response (PDX ES0201) was “non_responder” and the TGI (PDX ES0201) was 0.529. For the same molecule, the “Median AUC ratio” value (PDX LU1271) was −0.007, the Response (PDX LU1271) was “responder” and the TGI (PDX LU1271) was 1.081. The “Median AUC ratio” value (PDX ES0042) was −0.100, the Response (PDX ES0042) was “responder” and the TGI (PDX ES0042) was 1.128. The “Median AUC ratio” value (PDX LU1901) was −0.295, the Response (PDX LU1901) was “responder” and the TGI (PDX LU1901) was 1.077. The “Median AUC ratio” value (PDX GA3055) was −0.072, the Response (PDX GA3055) was “responder” and the TGI (PDX GA3055) was 1.215. For the same molecule, the “Median AUC ratio” value (PDX SA0271) was −0.133, the Response (PDX SA0271) was “responder” and the TGI (PDX SA0271) was 1.104. For the same molecule, the “Median AUC ratio” value (PDX LU1116) was 0.111, the Response (PDX LU1116) was “responder” and the TGI (PDX LU1116) was 1.250. The “incidence of severe diarrhea” value ([3]; compared with irinotecan) was “lower” and the “incidence and severity of anemia, neutropenia and thrombocytopenia” value ([3]; compared with topotecan) was “lower”.
